Measured values: US9751919B2, “Antimicrobial compositions comprising a hyaluronic acid binding peptide and a β-lactam antibiotic” (priority 2012, dated 2017)
“And” between values parts separate entries of the source, which are not always exact repeats. Equal entries are not always repeated. “Also recorded” adds a separate entry of the source. Marks after values point to notes of the source that are not given here.

Assays:
[1] = tested on: K. oxytoca; assay: Checkerboard assay (FIC index); type: cell-based, Klebsiella oxytoca; conditions: antibiotic combined with PEP35
Procedure: (§1) The checkerboard assays were carried out as described by Eliopoulos and Moellering (Chapter 9) in Antibiotic in Laboratory Medicine, Lorian Ed. 1996 as well as Bonapace et al. Diagnostic Microbiology and Infectious Diseases 2002; 44:363-366 and Bonapace et al. Diagnostic Microbiology and Infectious Diseases 2000; 38:43-50. In brief, checkerboard assays were performed in 96 well microtitre trays using an 8-by-8 well configuration. […] 96-well custom designed microtitre plates contained 100 ul/well of cation adjusted Mueller-Hinton broth (eg. for Enterobacteriaceae) with or without lysed horse blood (2-5% V/V) [eg. for S. pneumoniae] and were inoculated to achieve a final concentration of approximately 5×10^5 CFU/ml and incubated in ambient air for 24 hours prior to reading. Colony counts were performed periodically to confirm inocula. Quality control was performed every two weeks using a variety of ATCC QC organisms including; S. pneumoniae 49619, S. aureus 29213, E. faecalis 29212, E. coli 25922 and P. aeruginosa 27853. For all antimicrobials as well as PEP35, CLSI criteria was used.
(§2) The fractional inhibitory concentration index (FIC index) was used to interpret synergy, antagonism or additivity/indifference. FIC index=FIC of drug A+FIC of drug B where:
(§3) The FIC of drug A and drug B is calculated as follows, FIC drug A=MIC of drug A in combination/MIC of drug A alone and FIC of drug B=MIC of drug B in combination/MIC of drug B alone. Synergy is defined as FIC index ≦0.5, additivity/indifference FIC >0.5-4 and antagonism FIC index >4.
(§4) Antimicrobials used included PEP35, cefazolin, ceftriaxone, vancomycin, linezolid, tigecycline and daptomycin versus Gram-positive cocci and PEP35, gentamicin, levofloxacin, piperacillin/tazobactam, meropenem and colistin (Polymyxin E) versus Gram-negative bacilli. These agents were obtained as laboratory grade powders from their respective manufacturers. Stock solutions were prepared and dilutions made as described by the Clinical Laboratory Standards Institute (2005 CLSI).
(§5) Organisms included Gram-positive cocci (2 strains of each): Methicillin-susceptible Staphylococcus aureus (MSSA), community-associated (CA) and healthcare-associated (HA) methicillin-resistant Staphylococcus aureus (MRSA), vancomycin-intermediate Staphylococcus aureus (VISA), vancomycin-resistant Staphylococcus aureus (VRSA), methicillin-resistant Staphylococcus epidermidis (MRSE), Streptococcus pyogenes, Streptococcus agalactiae, Streptococcus pneumoniae, Enterococcus faecalis, Enterococcus faecium and vancomycin-resistant enterococcus (VRE). Gram-negative bacilli tested (2 strains of each) included: E. coli, Pseudomonas aeruginosa, Klebsiella pneumoniae, K. oxytoca, Enterobacter cloacae, P. mirabilis and Stenotrophomonas maltophilia. MIC testing, following two subcultures from frozen stock were determined by the CLSI 2005 approved broth microdilution method.

[2] = tested on: P. aeruginosa; assay: Checkerboard assay (FIC index); type: cell-based, Pseudomonas aeruginosa; conditions: antibiotic combined with PEP35
Procedure: as §1, §2, §3, §4, §5

[3] = tested on: E. coli; assay: Checkerboard assay (FIC index); type: cell-based, Escherichia coli; conditions: antibiotic combined with PEP35
Procedure: (§6) Checkerboard assays were carried out as described by Bonapace et al.
as §1, with “Diagnostic” for “The checkerboard assays were carried out as described by Eliopoulos and Moellering (Chapter 9) in Antibiotic in Laboratory Medicine, Lorian Ed. 1996 as well as Bonapace et al. Diagnostic”, “2002; 44:363-366.” for “2002; 44:363-366 and Bonapace et al. Diagnostic Microbiology and Infectious Diseases 2000; 38:43-50.”, “27853. […] All peptides were assessed for synergy with β-lactams and vancomycin.” for “27853.”, “as the peptides,” for “as PEP35,”, “criteria were” for “criteria was”
as §2
as §3, with “was” for “is”, “additivity/indifference defined as a” for “additivity/indifference”, “between 0.5 and 4” for “>0.5-4”, “antagonism defined as an” for “antagonism”
as §1, §3, §4
Organisms included Gram-positive cocci (2 strains of each): Methicillin-susceptible Staphylococcus aureus (MSSA), community-associated (CA) and healthcare-associated (HA) methicillin-resistant Staphylococcus aureus (MRSA), vancomycin-intermediate Staphylococcus aureus (VISA), vancomycin-resistant Staphylococcus aureus (VRSA), methicillin-resistant Staphylococcus epidermidis (MRSE), Streptococcus pyogenes, Streptococcus agalactiae, Streptococcus pneumoniae, Enterococcus faecalis, Enterococcus faecium and vancomycin-resistant enterococcus (VRE). […]

[4] = tested on: S. maltophilia; assay: Checkerboard assay (FIC index); type: cell-based, Stenotrophomonas maltophilia; conditions: antibiotic combined with PEP35
Procedure: as §1, §2, §3, §4, §5

[5] = tested on: K. pneumoniae; assay: Checkerboard assay (FIC index); type: cell-based, Klebsiella pneumoniae; conditions: antibiotic combined with PEP35
Procedure: as §1, §2, §3, §4, §5

[6] = tested on: P. mirabilis; assay: Checkerboard assay (FIC index); type: cell-based, Proteus mirabilis; conditions: antibiotic combined with PEP35
Procedure: as §1, §2, §3, §4, §5

[7] = tested on: E. cloacae; assay: Checkerboard assay (FIC index); type: cell-based, Enterobacter cloacae; conditions: antibiotic combined with PEP35
Procedure: as §1, §2, §3, §4, §5

[8] = tested on: E. coli; assay: MIC (CLSI broth dilution), agent alone; type: cell-based, Escherichia coli; conditions: E. coli 69716; agent alone
Procedure: (§7) VISA (strains 92, 95 and 96), VRSA (strains 105 and 106) and E. coli (strain 69717) isolates were also tested. One MSSA was used as a control. All MICs were assessed using CLSI guidelines. Also assessed was the activity of cefazolin, ceftriazone, meropenem, and a piperacillin/tazobactam combination antibiotic. Minimum inhibitory concentration (MIC) is the lowest concentration of an antimicrobial that will inhibit the visible growth of a microorganism after incubation.
(§8) Antimicrobial Susceptibility Testing: A custom designed panel of antimicrobials was created. The panel included: PEP35, penicillin, piperacillin/tazobactam, cefazolin, ceftriaxone, meropenem, clarithromycin, clindamycin, gentamicin, amikacin, vancomycin, ciprofloxacin, levofloxacin, moxifloxacin, linezolid, trimethoprim/sulfamethoxazole and doxycycline. These agents were obtained as laboratory grade powders from their respective manufacturers. Stock solutions were prepared and dilutions made as described by the Clinical Laboratory Standards Institute (2005 CLSI). Following two subcultures from frozen stock the MICs of the antimicrobial agents for the isolates were determined by the CLSI 2005 approved broth macrodilution method. Briefly, test tubes containing doubling antibiotic dilutions (2 ml per tube) of cation adjusted Mueller-Hinton broth (eg. for Enterobacteriaceae) with or without lysed horse blood (2-5% V/V) [eg. for S. pneumoniae] were inoculated to achieve a final concentration of approximately 5×10^5 CFU/ml and incubated in ambient air for 24 hours prior to reading. Colony counts were performed periodically to confirm inocula. Quality control was performed every two weeks using a variety of ATCC QC organisms including; S. aureus 29213, E. faecalis 29212, E. coli 25922 and P. aeruginosa 27853. For all antimicrobials as well as PEP35, CLSI criteria were used.
(§9) One MS SA and ATCC reference strains were used as controls. All MICs were assessed using CLSI guidelines.

[9] = tested on: MRSA, VISA, VRSA and E. coli; assay: MIC, agent alone, panel statement; type: cell-based; conditions: versus MRSA, VISA, VRSA and E. coli
Procedure: as §7, §8

[10] = tested on: VRSA; assay: MIC (CLSI broth dilution), agent alone; type: cell-based, Staphylococcus aureus; set-up: unit not given beside the values
Procedure: as §7, §8
(§10) One MSSA was used as a control. All MICs were assessed using CLSI guidelines.

[11] = tested on: CA-MRSA; assay: MIC (CLSI broth dilution), agent alone; type: cell-based, Staphylococcus aureus; conditions: agent alone, in µg/mL
Procedure: as §7
as §8, with “The panel included: PEP35, penicillin, piperacillin/tazobactam, cefazolin, ceftriaxone, meropenem, clarithromycin, clindamycin, gentamicin, amikacin, vancomycin, ciprofloxacin, levofloxacin, moxifloxacin, linezolid, trimethoprim/sulfamethoxazole and doxycycline.” left out, “27853.” for “27853. For all antimicrobials as well as PEP35, CLSI criteria were used.”
as §10, §9

[12] = tested on: HA-MRSA; assay: MIC (CLSI broth dilution), agent alone; type: cell-based, Staphylococcus aureus; conditions: agent alone
Procedure: as §7
as §8, with “The panel included: PEP35, penicillin, piperacillin/tazobactam, cefazolin, ceftriaxone, meropenem, clarithromycin, clindamycin, gentamicin, amikacin, vancomycin, ciprofloxacin, levofloxacin, moxifloxacin, linezolid, trimethoprim/sulfamethoxazole and doxycycline.” left out, “27853.” for “27853. For all antimicrobials as well as PEP35, CLSI criteria were used.”
as §10, §9

[13] = tested on: VISA; assay: MIC (CLSI broth dilution), agent alone; type: cell-based, Staphylococcus aureus; set-up: unit: µg/mL
Procedure: as §7, §8, §10

[14] = tested on: MRSA, VISA, VRSA and E. coli; assay: Checkerboard assay, panel statement; type: cell-based; conditions: with β-lactams versus MRSA, VISA, VRSA and E. coli
Procedure: as §6
as §1, with “Diagnostic” for “The checkerboard assays were carried out as described by Eliopoulos and Moellering (Chapter 9) in Antibiotic in Laboratory Medicine, Lorian Ed. 1996 as well as Bonapace et al. Diagnostic”, “2002; 44:363-366.” for “2002; 44:363-366 and Bonapace et al. Diagnostic Microbiology and Infectious Diseases 2000; 38:43-50.”, “27853. […] All peptides were assessed for synergy with β-lactams and vancomycin.” for “27853.”, “as the peptides,” for “as PEP35,”, “criteria were” for “criteria was”
as §2
as §3, with “was” for “is”, “additivity/indifference defined as a” for “additivity/indifference”, “between 0.5 and 4” for “>0.5-4”, “antagonism defined as an” for “antagonism”
The fractional inhibitory concentration index (FIC index) was used to interpret synergy, antagonism or additivity/indifference. FIC index=FIC of drug A+FIC of drug B where the FIC of drug A and drug B was calculated as follows, FIC drug A=MIC of drug A in combination/MIC of drug A alone and FIC of drug B=MIC of drug B in combination/MIC of drug B alone. Synergy was defined as FIC index ≦0.5, additivity/indifference defined as an FIC of between 0.5 and 4 and antagonism defined as an FIC index >4.

C[C@H]1COc2c(N3CCN(C)CC3)c(F)cc3c(=O)c(C(=O)O)cn1c23 [Levofloxacin, levofloxacin]
Avg ΣFIC (range) ([1]; K. oxytoca 75316): 0.88 (0.53-1.25) | Avg ΣFIC (range) ([1]; K. oxytoca 76874): 0.94 (0.62-1.12) | Avg ΣFIC (range) ([2]; P. aeruginosa 70849): 1.21 (1.03-1.5) | Avg ΣFIC (range) ([2]; P. aeruginosa 71841): 1.13 (1.0-1.25) | Avg ΣFIC (range) ([3]; E. coli 69716): 0.93 (0.56-1.12) | Avg ΣFIC (range) ([3]; E. coli 70752): 1.13 (0.75-1.12) | Avg ΣFIC (range) ([4]; S. maltophilia 73062): 1.21 (1.03-1.5) | Avg ΣFIC (range) ([4]; S. maltophilia 77424): 0.94 (0.62-1.12) | Avg ΣFIC (range) ([5]; K. pneumoniae 70508): 0.97 (0.75-1.12) | Avg ΣFIC (range) ([5]; K. pneumoniae 77081): 1.14 (1.06-1.25) | Avg ΣFIC (range) ([6]; P. mirabilis 80267): >1* | Avg ΣFIC (range) ([6]; P. mirabilis 81569): >1* | Avg ΣFIC (range) ([7]; E. cloacae 80194): 1.13 (1.0-1.25) | Avg ΣFIC (range) ([7]; E. cloacae 83128): 0.98 (0.75-1.12)

GAHWQFNALTVRGGGS (Laboratory designed HA inhibitor peptide) [PEP-52]
MIC [8]: > 512 and > 1024 | activity (in words) [9]: no activity; also recorded: not active | MIC ([10]; VRSA 105): > 512 and > 1024 | MIC ([10]; VRSA 106): > 512 and > 1024 | MIC ([11]; CA-MRSA 69615 (USA400)): > 512 and 1024 | MIC ([11]; CA-MRSA 70857 (USA400)): > 512 and 1024 | MIC ([12]; HA-MRSA 70798 (USA100/800)): > 512 and > 1024 | MIC ([12]; HA-MRSA 77090 (USA100/800), in µg/mL): > 512 and 1024 | MIC ([13]; VISA 92, in µg/mL): > 512 and 1024 | MIC ([13]; VISA 95, in µg/mL): > 512 and 1024 | MIC ([13]; VISA 96, in µg/mL): > 512 and 1024 | synergistic activity (in words) [14]: no synergistic activity
